Reference: ChEMBL document CHEMBL4196190, “Tetrahydrobenzofuran-6(2 H)-one Neolignans from Ocotea heterochroma: Their Platelet Activating Factor (PAF) Antagonistic Activity and in Silico Insights into the PAF Receptor Binding Mode” (J Nat Prod, 2018)

test: Antagonist activity at rabbit PAF receptor assessed as inhibition of PAF-induced platelet aggregation incubated for 5 mins followed by PAF addition; conditions: Oryctolagus cuniculus

IC50	SMILES
150 nM	C=CCC1=C[C@@]2(OC)C(=CC1=O)O[C@H](c1ccc(OC)c(OC)c1)[C@H]2C [KADSURENONE]
1090 nM	C=CCC1=C[C@]2(OC)[C@H](C)[C@@H](c3cc(OC)c4c(c3)OCO4)[C@](OC)(C1=O)[C@H]2O [CINERIN C]
390 nM	C=CC[C@H]1C[C@]2(OC)C(=C(OC)C1=O)O[C@@H](c1cc(OC)c3c(c1)OCO3)[C@@H]2C
930 nM	C[C@@H]1C(=O)O[C@H]2[C@H](O)[C@@]34[C@H]5C[C@@H](C(C)(C)C)[C@]36[C@@H](OC(=O)[C@@H]6O)O[C@@]4(C(=O)O5)[C@@]12O [GINKOLIDE B]
230 nM	C=CC[C@H]1C[C@]2(OC)C(=C(OC)C1=O)O[C@@H](c1cc(OC)c(OC)c(OC)c1)[C@@H]2C
